What was measured:
BCL6 mRNA = assay: Quantitative PCR of BCL6 mRNA; type: cell-based, human; settings: SuDHL4Cas9 cells, 1 μM, 1 hour
Description: 1×10^6 SuDHL4Cas99 cells were treated with DMSO or 1 μM BI-3802 for 1 h, collected by centrifugation, washed with PBS, and flash frozen in dry ice. mRNA was isolated using the QIAGEN RNA kit (Qiagen, 74106). For cDNA synthesis, total RNA was reverse transcribed with SuperScript™ VILO™ Master Mix (Invitrogen, 11755050) before qPCR analysis with TaqMan Fast Advanced Master Mix (ThermoFisher Scientific, 4444557) for BCL6 (TaqMan, […], Life Technologies) and GAPDH (TaqMan, Hs02758991_g1). Reactions were run and analyzed on QStudio 6 FLX real-Time PCR System (ThermoFisher Scientific).

BCL6^5-129 = target: T1, BCL6^5-129 (Homo sapiens, UniProt P41182); assay: BCL6-BCoR TR-FRET (compound binding assay); settings: 0.1 μM FITCBCoR polypeptide, 0.1 μM BiotinBCL6^5-129
T1 construct: mixing 100 nM biotinylated BCL6^5-129, 100 nM N-terminal FITC-labeled BCoR peptide; made in house; host or cells: Trichoplusia ni High Five insect cells, baculovirus
Description: Competitive titration of BI-3802 or BI-3812 were carried out by mixing 100 nM biotinylated BCL6^5-129, 100 nM N-terminal FITC-labeled BCoR peptide (sequence: […]), and 2 nM terbium-coupled streptavidin in the same assay buffer. After dispensing the assay mixture (15 μL volume), increasing concentrations of compounds were dispensed in a 384-well microplate (Corning, 4514) using a D300e Digital Dispenser (HP) normalized to 1% DMSO. The 520/490 nm ratios were measured as described above and plotted to calculate the KD^APP values using dose-response analysis standard four parameter log-logistic curves using the dr4pl R package.

[1] = target: T2, eGFPBCL6 stability reporter (Homo sapiens, UniProt P41182); assay: Degradation of BCL6 reporter constructs in HEK293T cells (flow cytometry); type: cell-based; settings: HEK293T cells, 1 μM, 1 hour
T2 construct: the full length BCL6 (BCL6^FL) was fused in-frame with eGFP; expressed in transfected cells; host or cells: HEK293TCas9 cells, lentiviral transduction (Artichoke vector)
Description: Lentivirus was packaged in HEK293T cells using TransIT (Mirus) and subsequently used for spin infection.
HEK293TCas9 cells expressing indicated constructs in “Artichoke” or “Cilantro2” stability reporter vectors (PGK or SFFV Target-eGFP-IRES-mCherry, puromycin resistance) were plated in 96 well plates and treated for indicated times. BCL6-eGFP and mCherry expression were quantified by flow cytometry (CytoFLEX, Beckman or LSR Fortessa flow cytometer BD Biosciences). All degradation assays were done in at least triplicates. Geometric means of eGFP and mCherry fluorescent signals for live and mCherry positive cells were exported using flow cytometry analysis software (FlowJo, BD). Ratios of eGFP to mCherry were normalized to the average of DMSO-treated controls.

[2] = target: T3, eGFPBCL6^1-275 and V5SIAH1 (Homo sapiens, UniProt P41182); assay: Immunofluorescence of SIAH1 and BCL6 foci in HEK293T cells; type: cell-based; settings: HEK293TCas9 cells, 0.5 μM MLN7243 pre-treatment 2 hours, 1 μM BI-3802 1 hour
T3 construct: expressed in transfected cells; host or cells: HEK293TCas9 cells, lentiviral transduction
Description: HEK293TCas9 cells expressing eGFPBCL6^250 and eGFPBCL6^275 constructs were transduced with V5SIAH1^C44S (infection rate >70%). […] The cells were fixed with 4% formaldehyde for 15 min and permeabilized with 0.1% Triton X100 for 30 min. Epitopes were blocked with 10% BSA for 10 min. Anti-V5 antibodies were added and incubated on slides overnight at 4° C. After removal of the primary antibodies and washes, Alexa Fluor 633-conjugated anti-mouse antibodies were added and incubated at room temperature for 45 min. Finally, the slides were stained with DAPI (BD Biosciences, #564907, 1:5,000 in H2O) and mounted with SlowFader™ Diamond Antifade Mountant (Thermo Fisher Scientific, S36963). Cells were imaged with the Leica TCS SP5 confocal microscope.

BCL6^5-360 = target: T4, BCL6^5-360 (Homo sapiens, UniProt P41182); assay: Negative stain electron microscopy of BCL6; type: biochemical; settings: BCL6^5-360, 2 μM or 20 μM BI-3802
T4 construct: size-exclusion chromatogram of purified BCL6^5-360 in the presence of DMSO; made in house; host or cells: Trichoplusia ni High Five insect cells, baculovirus
Description: The incubated protein samples were rapidly diluted to 10 μg/mL (sample treated with DMSO) or 50 μg/ml (samples treated with BI-3802). A 5 μL aliquot was applied to glow-discharged 400-mesh carbon-coated nickel grids (CF400-NI-UL, Electron Microscopy Sciences). After incubating for 1 min, protein was wicked off with a filter paper and the grid was washed twice with distilled water, followed by two rounds of staining with 2% uranyl acetate for 5 s and 20 s, respectively. Grids were imaged at a nominal magnification of 40,000× on a JEOL JEM-1400Plus operated at 80 kV.

BCL6 = target: T5, BCL6 (Homo sapiens, UniProt P41182); assay: Cellular fractionation and immunoblot of BCL6; type: cell-based; settings: SuDHL4 cells, 1 μM, 24 hours
T5 construct: endogenous in cells; host or cells: SuDHL4 / SuDHL4Cas9 cells
Description: 1×10^6 SuDHL4Cas9 cells were treated with DMSO or 1 μM BI-3802 for 24 h and fractionated using the CelLytic™NuCLEAR™Extraction Kit (Sigma-Aldrich) according to the manufacturer's protocol, resolved on a polyacrylamide gel, and immunoblotted for the indicated targets.

SuDHL4Cas9 cells = assay: Whole proteome quantification using tandem mass tag mass spectrometry; type: cell-based, human; settings: SuDHL4 cells, 1 μM compound, 4 hours
Description: 10×10^6 SuDHL4Cas9 cells were treated with DMSO, 1 μM BI-3802 or 1 μM BI-3812 for 1 h or 4 h in triplicates and cells were harvested by centrifugation. Samples were processed, measured and analyzed as previously described (Donovan, K. A. et al. Thalidomide promotes degradation of SALL4, a transcription factor implicated in Duane Radial Ray syndrome. Ehfe 7, doi:10.7554/eLife.38430 (2018)). Data are available in the PRIDE repository (PXD016185).

## CNC(=O)COc1cc2cc(Nc3nc(N4C[C@H](C)C[C@H](C)C4)ncc3Cl)ccc2n(C)c1=O [BI-3802, 2-((6-((5-chloro-2-((3S,5R)-3,5-dimethylpiperidin-1-yl)pyrimidin-4-yl)amino)-1-methyl-2-oxo-1,2-dihydroquinolin-3-yl)oxy)-N-methylacetamide]
BCL6 mRNA
  BCL6 mRNA expression: did not alter BCL6 mRNA expression
BCL6^5-129
  affinity of compound to BCL6 (BCoR peptide competition): comparable affinity
[1]
  degradation of full-length BCL6 reporter (eGFPBCL6^FL): induced degradation of the full-length BCL6 reporter
[2]
  SIAH1 colocalization to BCL6 foci: SIAH1 colocalized to BCL6 foci in a V×P motif dependent manner
BCL6^5-360
  higher-order BCL6 structures by negative stain EM: formation of regular structures with a sinusoidal shape was observed
BCL6
  chromatin-bound BCL6 level: efficiently depleted chromatin-bound BCL6
SuDHL4Cas9 cells
  change in polypeptide abundance (whole proteome): BCL6 was the only polypeptide with significantly decreased abundance
